Laboratory results taken from patent US12384808B2, “Modulators of TNF-α activity” (Forward Therapeutics, Inc., priority 2022, dated 2025).

molecular target: TNFα (Homo sapiens, UniProt P01375); test: TNFα Induced HEK Blue Cellular Assay; type: cell-based; details: not given
Procedure, shortened: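 Reporter cells (10,000/well, DMEM + 10% FBS) with compound (final […] to 0.5 nM) stimulated with 100 pg/ml TNFα, 24 h at 37 °C, 5% CO2. Secreted alkaline phosphatase read at 620 nm; IC50 by 4-parameter logistic fit after background correction against stimulated/unstimulated DMSO controls.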

Chain of TNFα (P01375 77-233 limits assumed): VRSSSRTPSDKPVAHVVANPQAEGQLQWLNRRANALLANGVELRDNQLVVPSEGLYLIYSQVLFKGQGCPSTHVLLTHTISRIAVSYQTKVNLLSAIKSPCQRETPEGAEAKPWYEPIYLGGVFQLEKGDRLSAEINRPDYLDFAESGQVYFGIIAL

Compound	IC50
[2H]C([2H])([2H])N1C(=O)c2cccc(OC(F)F)c2[C@H]2C[C@@H]1c1nc3ccc(-c4ccc(CP(=O)(OC)OC)cc4)cc3n12 [Example 83, dimethyl (4-((7R,14R)-1-(difluoromethoxy)-6-(methyl-d3)-5-oxo-5,6,7,14-tetrahydro-7,14-methanobenzo[f]benzo[4,5]imidazo[1,2-a][1,4]diazocin-11-yl)benzyl)phosphonate]	< 100 nM

same assay, conditions: HEK Blue TNFα reporter cells, TNFα 100 pg/ml, 24 hrs at 37° C., secreted alkaline phosphatase (QUANTI-Blue) read at 620 nm; read-out: IC50 value

IC50	Compound
< 100 nM	CN1C(=O)c2cccc(OC(F)F)c2[C@H]2C[C@@H]1c1nc3ccc(-c4c(F)cc(P(C)(C)=O)cc4F)cc3n12 [Example 62, (1R,11R)-18-(difluoromethoxy)-5-[4-(dimethylphosphoryl)-2,6-difluorophenyl]-12-methyl-2,9,12-triazapentacyclo[9.8.1.0^{2,10}.0^{3,8}.0^{14,19}]icosa-3(8),4,6,9,14(19),15,17-heptaen-13-one]
< 100 nM	[2H]C([2H])([2H])N1C(=O)c2cccc(OC(F)F)c2[C@H]2C[C@@H]1c1nc3ccc(-c4c(F)cc(P(C)(C)=O)cc4F)cc3n12 [Example 63, (7R,14R)-1-(difluoromethoxy)-11-(4-(dimethylphosphoryl)-2,6-difluorophenyl)-6-(methyl-d3)-6,7-dihydro-7,14-methanobenzo[f]benzo[4,5]imidazo[1,2-a][1,4]diazocin-5(14H)-one]
100 to 1000 nM	[2H]C([2H])([2H])N1C(=O)c2cccc(OC(F)F)c2[C@H]2C[C@@H]1c1nc3cc(F)c(-c4ccc(P(C)(C)=O)cc4)cc3n12 [Example 64, (7R,14R)-1-(difluoromethoxy)-11-(4-(dimethylphosphoryl)phenyl)-10-fluoro-6-(methyl-d3)-6,7-dihydro-7,14-methanobenzo[f]benzo[4,5]imidazo[1,2-a][1,4]diazocin-5(14H)-one]
< 100 nM	[2H]C([2H])([2H])N1C(=O)c2cccc(OC(F)F)c2[C@H]2C[C@@H]1c1nc3ccc(-c4ccc(P(C)(C)=O)cc4)cc3n12 [Example 65, (7R,14R)-1-(difluoromethoxy)-11-(4-(dimethylphosphoryl)phenyl)-6-(methyl-d3)-6,7-dihydro-7,14-methanobenzo[f]benzo[4,5]imidazo[1,2-a][1,4]diazocin-5(14H)-one]
< 100 nM	CP(C)(=O)c1ccc(-c2cc3c(cc2F)nc2n3[C@@H]3C[C@H]2NC(=O)c2cccc(OC(F)F)c23)cc1F [Example 66, (7R,14R)-1-(difluoromethoxy)-11-(4-(dimethylphosphoryl)-3-fluorophenyl)-10-fluoro-6,7-dihydro-7,14-methanobenzo[f]benzo[4,5]imidazo[1,2-a][1,4]diazocin-5(14H)-one]
< 100 nM	[2H]C([2H])([2H])N1C(=O)c2cccc(OC(F)F)c2[C@H]2C[C@@H]1c1nc3ccc(-c4ccc(CP(C)(C)=O)cc4F)cc3n12 [Example 67, (7R,14R)-1-(difluoromethoxy)-11-(4-((dimethylphosphoryl)methyl)-2-fluorophenyl)-6-(methyl-d3)-6,7-dihydro-7,14-methanobenzo[f]benzo[4,5]imidazo[1,2-a][1,4]diazocin-5(14H)-one]
< 100 nM	[2H]C([2H])([2H])N1C(=O)c2cccc(OC(F)F)c2[C@H]2C[C@@H]1c1nc3ccc(-c4ccc(CP(C)(C)=O)c(F)c4)cc3n12 [Example 68, (7R,14R)-1-(difluoromethoxy)-11-(4-((dimethylphosphoryl)methyl)-3-fluorophenyl)-6-(methyl-d3)-6,7-dihydro-7,14-methanobenzo[f]benzo[4,5]imidazo[1,2-a][1,4]diazocin-5(14H)-one]
< 100 nM	[2H]C([2H])([2H])N1C(=O)c2cccc(OC(F)F)c2[C@H]2C[C@@H]1c1nc3ccc(-c4cc(F)c(CP(C)(C)=O)c(F)c4)cc3n12 [Example 69, (7R,14R)-1-(difluoromethoxy)-11-(4-((dimethylphosphoryl)methyl)-3,5-difluorophenyl)-6-(methyl-d3)-6,7-dihydro-7,14-methanobenzo[f]benzo[4,5]imidazo[1,2-a][1,4]diazocin-5(14H)-one]
< 100 nM	[2H]C([2H])([2H])N1C(=O)c2cccc(OC(F)F)c2[C@H]2C[C@@H]1c1nc3ccc(-c4ccc(CP(C)(C)=O)cc4)cc3n12 [Example 70, (7R,14R)-1-(difluoromethoxy)-11-(4-((dimethylphosphoryl)methyl)phenyl)-6-(methyl-d3)-6,7-dihydro-7,14-methanobenzo[f]benzo[4,5]imidazo[1,2-a][1,4]diazocin-5(14H)-one]
10000 to 30000 nM	[2H]C([2H])([2H])N1C(=O)c2cccc(O)c2[C@H]2C[C@@H]1c1nc3ccc(-c4cc(F)c(P(C)(C)=O)cc4F)cc3n12 [Example 71, (7R,14R)-11-(4-(dimethylphosphoryl)-2,5-difluorophenyl)-1-hydroxy-6-(methyl-d3)-6,7-dihydro-7,14-methanobenzo[f]benzo[4,5]imidazo[1,2-a][1,4]diazocin-5(14H)-one]
< 100 nM	CP(C)(=O)Cc1ccc(-c2ccc3nc4n(c3c2)[C@@H]2C[C@H]4NC(=O)c3cccc(OC(F)F)c32)cc1F [Example 72, (7R,14R)-1-(difluoromethoxy)-11-(4-((dimethylphosphoryl)methyl)-3-fluorophenyl)-6,7-dihydro-7,14-methanobenzo[f]benzo[4,5]imidazo[1,2-a][1,4]diazocin-5(14H)-one]
< 100 nM	CN1C(=O)c2cccc(OC(F)F)c2[C@H]2C[C@@H]1c1nc3ccc(-c4cc(F)c(CP(C)(C)=O)cc4F)cc3n12 [Example 73, (7R,14R)-1-(difluoromethoxy)-11-(4-((dimethylphosphoryl)methyl)-2,5-difluorophenyl)-6-methyl-6,7-dihydro-7,14-methanobenzo[f]benzo[4,5]imidazo[1,2-a][1,4]diazocin-5(14H)-one]
100 to 1000 nM	[2H]C([2H])([2H])N1C(=O)c2cccc(OC)c2[C@H]2C[C@@H]1c1nc3ccc(-c4cc(F)c(P(C)(C)=O)cc4F)cc3n12 [Example 74, (7R,14R)-11-(4-(dimethylphosphoryl)-2,5-difluorophenyl)-1-methoxy-6-(methyl-d3)-6,7-dihydro-7,14-methanobenzo[f]benzo[4,5]imidazo[1,2-a][1,4]diazocin-5(14H)-one]
< 100 nM	[2H]C([2H])([2H])N1C(=O)c2cccc(OCC)c2[C@H]2C[C@@H]1c1nc3ccc(-c4cc(F)c(P(C)(C)=O)cc4F)cc3n12 [Example 75, (7R,14R)-11-(4-(dimethylphosphoryl)-2,5-difluorophenyl)-1-ethoxy-6-(methyl-d3)-6,7-dihydro-7,14-methanobenzo[f]benzo[4,5]imidazo[1,2-a][1,4]diazocin-5(14H)-one]
< 100 nM	[2H]C([2H])([2H])N1C(=O)c2cccc(OC(F)F)c2[C@H]2C[C@@H]1c1nc3ccc(-c4ccc(CP(C)(C)=O)c(F)c4F)cc3n12 [Example 76, (7R,14R)-1-(difluoromethoxy)-11-(4-((dimethylphosphoryl)methyl)-2,3-difluorophenyl)-6-(methyl-d3)-6,7-dihydro-7,14-methanobenzo[f]benzo[4,5]imidazo[1,2-a][1,4]diazocin-5(14H)-one]
< 100 nM	CN1C(=O)c2cccc(OC(F)F)c2[C@H]2C[C@@H]1c1nc3ccc(-c4cc(F)c(CP(C)(C)=O)c(F)c4)cc3n12 [Example 77, (7R,14R)-1-(difluoromethoxy)-11-(4-((dimethylphosphoryl)methyl)-3,5-difluorophenyl)-6-methyl-6,7-dihydro-7,14-methanobenzo[f]benzo[4,5]imidazo[1,2-a][1,4]diazocin-5(14H)-one]
< 100 nM	[2H]C([2H])([2H])N1C(=O)c2cccc(OC(F)F)c2[C@H]2C[C@@H]1c1nc3cc(F)c(-c4ccc(CP(C)(C)=O)c(F)c4)cc3n12 [Example 78, (7R,14R)-1-(difluoromethoxy)-11-(4-((dimethylphosphoryl)methyl)-3-fluorophenyl)-10-fluoro-6-(methyl-d3)-6,7-dihydro-7,14-methanobenzo[f]benzo[4,5]imidazo[1,2-a][1,4]diazocin-5(14H)-one]
< 100 nM	CN1C(=O)c2cccc(OC(F)F)c2[C@H]2C[C@@H]1c1nc3ccc(-c4ccc(CP(C)(C)=O)c(F)c4)cc3n12 [Example 79, (7R,14R)-1-(difluoromethoxy)-11-(4-((dimethylphosphoryl)methyl)-3-fluorophenyl)-6-methyl-6,7-dihydro-7,14-methanobenzo[f]benzo[4,5]imidazo[1,2-a][1,4]diazocin-5(14H)-one]
< 100 nM	CN1C(=O)c2cccc(OC(F)F)c2[C@H]2C[C@@H]1c1nc3ccc(-c4ccc(CP(C)(C)=O)cc4F)cc3n12 [Example 80, (7R,14R)-1-(difluoromethoxy)-11-(4-((dimethylphosphoryl)methyl)-2-fluorophenyl)-6-methyl-6,7-dihydro-7,14-methanobenzo[f]benzo[4,5]imidazo[1,2-a][1,4]diazocin-5(14H)-one]
< 100 nM	CP(C)(=O)Cc1c(F)cc(-c2ccc3nc4n(c3c2)[C@@H]2C[C@H]4NC(=O)c3cccc(OC(F)F)c32)cc1F [Example 81, (7R,14R)-1-(difluoromethoxy)-11-(4-((dimethylphosphoryl)methyl)-3,5-difluorophenyl)-6,7-dihydro-7,14-methanobenzo[f]benzo[4,5]imidazo[1,2-a][1,4]diazocin-5(14H)-one]
100 to 1000 nM	CP(C)(=O)Cc1cc(F)c(-c2ccc3nc4n(c3c2)[C@@H]2C[C@H]4NC(=O)c3cccc(OC(F)F)c32)cc1F [Example 82, (7R,14R)-1-(difluoromethoxy)-11-(4-((dimethylphosphoryl)methyl)-2,5-difluorophenyl)-6,7-dihydro-7,14-methanobenzo[f]benzo[4,5]imidazo[1,2-a][1,4]diazocin-5(14H)-one]
< 100 nM	[2H]C([2H])([2H])N1C(=O)c2cccc(OC(F)F)c2[C@H]2C[C@@H]1c1nc3ccc(-c4ccc(C(O)P(C)(C)=O)cc4)cc3n12 (stereo partly drawn) [Example 84, (7R,14R)-1-(difluoromethoxy)-11-(4-((dimethylphosphoryl)(hydroxy)methyl)phenyl)-6-(methyl-d3)-6,7-dihydro-7,14-methanobenzo[f]benzo[4,5]imidazo[1,2-a][1,4]diazocin-5(14H)-one]
